Patent US20030125252A1, “Compositions and methods for affecting osteogenesis” (priority 2002, published 2003)

Assays:
[1] = test system: MC3T3-E1 cells; test: Cell viability, MTT assay; assay type: cell-based, mouse; conditions: for cell viability: MC3T3-E1 early stage cultures, data not shown
Method: Cell viability was measured in MC3T3-E1 cells using the 3-[4,5-dimethylthiazol-2-yl]-2,5-diphenyltetrazolium bromide (MTT) assay in 96-well plates as described in the Roche Molecular Biochemicals product information. Briefly, cells were cultured to confluence, at which time various concentrations and combinations of ligands were added to the cultures followed by incubation for 24 to 60 hr. MTT substrate to a final concentration of 0.5 mg/ml was added to each well and the incubation was extended for a further 4 hr. At this time, cells were solubilized overnight in 10% sodium dodecyl sulfate (SDS) in 0.01 M HCl and absorbance was measured at 595 nm using a 650 nm reference wavelength.

[2] = test system: MC3T3-E1 cells; test: Histological analysis of mineralization (Alizarin Red S) in MC3T3-E1 cultures; assay type: cell-based, mouse; conditions: for mineralization (Alizarin Red S staining), concentration dependence: MC3T3-E1 mineralizing cultures
Method: MC3T3-E1 cells were maintained in Minimum Essential Medium Eagle-modification supplemented with 10% fetal bovine serum (Gibco-BRL) and subcultured as previously described (20). For mineralization, cultures of MC3T3-E1 cells were supplemented with ascorbate (50 μg/ml) and β-glycerolphosphate (β-GP, 10 mM), and the medium was changed every 3 days. These compounds, in addition to ligands, were added to the media once the cultures had reached confluence. MC3T3-637OC stable transfectants were cultured in the same manner and supplemented with active G418 (700 μg/ml). COSP7 cells were cultured in Dulbecco's Modified Eagle's Medium containing 10% FBS and antibiotics. All-trans RA was obtained from Sigma. 4-[E-2-(5,6,7,8-Tetrahydro-5,5,8,8-tetramethyl-2-naphthalenyl)-1-propenyl] benzoic acid (TTNPB), 1,25 VD3 and 9-cis RA were purchased from BioMol.
MC3T3-E1 cells were seeded at 2×10^4 cells/well into 12-well plates, and medium was changed at three-day intervals for a period of 4 weeks. Matrix calcification within the cultures was measured by histological staining with Alizarin Red S (Sigma). Cells were fixed for 10 min in equal parts of 40% formaldehyde and methanol, rinsed briefly in 50% ethanol followed by a rinse in water. Samples were then stained with Alizarin Red S (2% w/v, pH 4.2) for 2 min, followed by a 30-second wash in acetone and allowed to air dry. A Zeiss SV11 dissection microscope connected to a Sony DXC-950 video camera was used to capture digital images. The extent of mineralization for each culture was determined by calculating the percentage of surface area occupied by Alizarin Red S-stained material using Northern Eclipse image analysis software (Empix Imaging Inc.). All images were captured from the center of the well at low magnification, a field which represents ˜65% of the total surface area of the well.

[3] = test system: MC3T3-E1 cells; test: Cell death, propidium iodide (PI) staining; assay type: cell-based, mouse; conditions: for number of PI-stained cells (cell death): MC3T3-E1, single ligand
Method: Cultures of MC3T3-E1 were initiated at sub-confluence (1-2×10^4 cells/well) in 24-well plates and allowed to reach confluence prior to the addition of ligands, β-GP and ascorbate. […] Cells were incubated in the presence of the dye for 5 minutes, and images were acquired using epifluorescence with a XF35 filter set (Omega Optical) at low magnification (50×). The number of fluorescent-positive cells per microscopic field (3 mm^2) was counted using Northern Eclipse imaging software.

[4] = test system: OC mRNA in MC3T3-E1 cultures; test: Northern blotting of osteocalcin (OC) mRNA; assay type: cell-based, mouse; conditions: MC3T3-E1, 1000 nM
Method: Total RNA was isolated with TriPure Isolation Reagent (Roche Molecular Biochemicals) from MC3T3-E1 cultures under mineralizing conditions at various times after culture initiation. RNA samples were separated by electrophoresis of 15 μg aliquots on a 1% agarose-formaldehyde gel. RNA was then transferred to a Hybond-N nylon membrane (Amersham-Pharmacia Biotech) and cross-linked by UV irradiation. Blots were pre-hybridized in Ultrahyb (Ambion) at 45° C. for at least 1 hr. A radiolabeled rat cDNA probe to OC (provided by J. E. Aubin, University of Toronto) was synthesized by random priming. Hybridizations were carried out overnight in Ultrahyb at 42° C. Following hybridization, blots were washed twice with 2×SSC, 0.1% SDS containing buffer for 5 min each at 42° C., followed by two washes in 0.1×SSC, 0.1% SDS for 15 min each at 42° C. and exposed to BioMax X-ray film at −80° C. for 24 hr.

[5] = target: T1, RARβ (Homo sapiens, UniProt P10826); conditions: compared with RARα; cited from earlier work
T1 sequence (P10826 1-455): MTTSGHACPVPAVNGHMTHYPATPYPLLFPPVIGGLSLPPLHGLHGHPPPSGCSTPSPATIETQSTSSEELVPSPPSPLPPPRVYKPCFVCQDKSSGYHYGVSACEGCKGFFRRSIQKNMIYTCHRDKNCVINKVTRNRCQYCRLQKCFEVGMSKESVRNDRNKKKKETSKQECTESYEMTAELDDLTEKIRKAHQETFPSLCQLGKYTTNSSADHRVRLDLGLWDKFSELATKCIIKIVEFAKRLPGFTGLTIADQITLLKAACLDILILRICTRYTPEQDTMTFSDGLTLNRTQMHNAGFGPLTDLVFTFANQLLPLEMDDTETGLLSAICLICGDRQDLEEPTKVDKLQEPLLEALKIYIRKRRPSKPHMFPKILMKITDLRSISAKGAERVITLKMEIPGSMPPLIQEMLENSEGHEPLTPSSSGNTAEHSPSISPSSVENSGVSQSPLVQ

[6] = target: T2, RARγ (Homo sapiens, UniProt P13631); conditions: compared with RARα; cited from earlier work
T2 sequence (P13631 1-454): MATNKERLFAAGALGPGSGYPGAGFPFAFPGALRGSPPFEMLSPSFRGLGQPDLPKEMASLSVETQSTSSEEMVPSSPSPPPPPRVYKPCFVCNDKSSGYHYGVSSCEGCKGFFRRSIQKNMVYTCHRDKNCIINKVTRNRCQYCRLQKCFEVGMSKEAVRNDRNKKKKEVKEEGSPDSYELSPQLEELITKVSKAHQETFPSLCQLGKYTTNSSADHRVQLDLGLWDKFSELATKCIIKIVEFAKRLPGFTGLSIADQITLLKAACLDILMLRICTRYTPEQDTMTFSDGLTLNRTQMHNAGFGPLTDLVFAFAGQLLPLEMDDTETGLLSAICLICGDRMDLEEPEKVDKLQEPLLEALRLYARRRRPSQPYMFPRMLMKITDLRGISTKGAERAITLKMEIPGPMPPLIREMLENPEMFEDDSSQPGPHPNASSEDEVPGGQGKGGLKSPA

[7] = test system: normal human osteoblasts; test: Normal human osteoblast cultures, mineralization (alizarin red S, Von Kossa); assay type: cell-based; conditions: 1000 nM, versus control cultures
[8] = target: T3, RARα (Homo sapiens, UniProt P10276); conditions: cited from earlier work
T3 sequence (P10276 1-462): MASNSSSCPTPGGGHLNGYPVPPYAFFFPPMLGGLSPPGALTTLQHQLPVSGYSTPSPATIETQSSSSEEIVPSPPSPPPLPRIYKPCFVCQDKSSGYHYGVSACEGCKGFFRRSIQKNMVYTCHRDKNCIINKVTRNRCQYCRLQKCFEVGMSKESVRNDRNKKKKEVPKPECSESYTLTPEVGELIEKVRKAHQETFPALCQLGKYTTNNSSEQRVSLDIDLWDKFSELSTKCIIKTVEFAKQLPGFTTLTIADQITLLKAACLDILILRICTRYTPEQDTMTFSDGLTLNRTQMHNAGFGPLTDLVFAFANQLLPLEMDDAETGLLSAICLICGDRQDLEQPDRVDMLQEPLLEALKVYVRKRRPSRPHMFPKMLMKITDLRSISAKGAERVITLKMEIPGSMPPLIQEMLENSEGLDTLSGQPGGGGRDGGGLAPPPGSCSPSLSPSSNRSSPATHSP

[9] = test system: normal human osteoblasts; test: Normal human osteoblast cultures, cell death and cell number (PI, Hoechst 33342); assay type: cell-based; conditions: 1000 nM, 10 days, versus control cultures
Method: Normal human osteoblast (NHO) were derived from the long bones of a human donor. The cells were purchased from Clonetics (BioWhittaker Company) and cultured according to their protocols with media and serum obtained from Clonetics. Ligands were added to the cell cultures once the cells had reached confluence. Cells were stained with Hoechst 33342, a DNA stain, to allow visualization of the cell nuclei and allow assessment of cell number (the cell nuclei appear white) (FIGS. 7A-C). FIGS. 7D-F the cells were stained with propidium iodide (a membrane impermeant nucleic acid stain) to allow visualization of dead or dying cells.

## C=C1/C(=C\C=C2/CCC[C@]3(C)[C@@H]([C@H](C)CCCC(C)(C)O)CC[C@@H]23)C[C@@H](O)C[C@@H]1O [1,25 VD3, 1α,25-dihydroxy vitamin-D3]
[1]; MC3T3-E1, 60 hr, individual ligand
  cell viability (MTT): decreased cell viability
[2]; MC3T3-E1, 28 days, 0.1 nM
  amount of Alizarin Red-staining: decrease in the amount of Alizarin Red-staining
[2]
  mineralization (Alizarin Red S staining), concentration dependence: concentration-dependent decrease in mineralization
[3]; MC3T3-E1, over the concentration range examined
  potency in raising PI-stained bodies, compared with the RAR-agonist: greater potency than the RAR-agonist
[3]
  number of PI-stained cells (cell death): greater number of PI-stained bodies

## CC1=C(/C=C/C(C)=C\C=C\C(C)=C\C(=O)O)C(C)(C)CCC1 [9-cis RA, 9-cis retinoic acid]
[1]
  cell viability: concentration-dependent decrease in cell viability
[3]
  number of PI-stained cells (cell death): stimulate cell death

## Cc1ccc(C2=CC(C)(C)Oc3c(Br)cc(C(=O)Nc4ccc(C(=O)O)c(F)c4)cc32)cc1 [AGN194301, 2-Fluoro-4-[(1-(8-bromo-2,2-dimethyl-4-(4-methylphenyl)-2-H-chromen-6-yl)-methanoyl)-amino]-benzoic acid]
[4]
  OC expression: stimulated OC expression
[4]; wild-type cultures 18 days
  culture time after which strong OC mRNA expression became evident: 12 days
[5]
  affinity for RARβ: lower affinity
[6]
  affinity for RARγ: lower affinity
[7]; 19 days of ligand treatment
  mineral deposition (Von Kossa, calcium phosphate): stimulates mineral deposition
[2]; 100 nM AGN194301 added to cultures treated with 10 nM 1,25 VD3
  bone formation relative to control cultures: ~70%
[2]; MC3T3-E1, 28 days, 10 nM
  increase of Alizarin Red S staining over untreated controls: approximately 3 fold
[2]; MC3T3-E1, 28 days, 1 μM, control cultures approximately 18%
  culture surface area stained with Alizarin Red S: approximately 95%
[2]
  mineralization (Alizarin Red S staining), concentration dependence: concentration-dependent increase in Alizarin Red S staining
[8]
  affinity for RARα: high affinity
  antagonism of RARα: potent antagonist
[3]; AGN194301 added to 1,25 VD3-treated cultures, 36 hr
  number of PI-positive cells relative to 1,25 VD3 treated culture: less than 20%
[3]; MC3T3-E1, AGN194301 alone
  appearance of PI-positive cells: no appreciable effect

## C/C(=C\c1ccc(C(=O)O)cc1)c1ccc2c(c1)C(C)(C)CCC2(C)C [TTNPB, 4-[E-2-(5,6,7,8-Tetrahydro-5,5,8,8-tetramethyl-2-naphthalenyl)-1-propenyl] benzoic acid]
[1]
  cell viability: concentration-dependent decrease in cell viability
[3]
  number of PI-stained cells (cell death): stimulate cell death

## CC1=C(/C=C/C(C)=C/C=C/C(C)=C/C(=O)O)C(C)(C)CCC1 [all-trans RA, all-trans retinoic acid]
[1]
  cell viability: concentration-dependent decrease in cell viability
[9]
  cell death (PI staining): increased cell death
  cell number (Hoechst 33342): decreased cell number
[7]; fifteen day old cultures
  alizarin red staining: reduced alizarin red staining
[3]
  number of PI-stained cells (cell death): stimulate cell death
